Measurements from ChEMBL document CHEMBL1201862, “PubChem BioAssay data set” (2004).
Activity calls are given as the source filed them.

Legend:
[1] = HEK293 cell viability, dose response, counter-screen for EBV LMP1 inhibitor project, dry powder, set 2 (AID 624374); format: functional
[2] = ARNT/TACC3 interaction disruptors, potency, confirmation, biochemical, AlphaScreen, cherry-picked samples (AID 651703); format: functional, Homo sapiens;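 further: His-tagged ARNT PAS-B domain paired with GST-TACC3 E629A dimer coactivator fragment; potency of inhibitors that break up the complex and lower AlphaScreen signal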
Mu-type opioid receptor [3] = target: T1, Mu-type opioid receptor (Homo sapiens, UniProt P35372); format: functional, cell-based
T1 sequence (P35372 whole entry): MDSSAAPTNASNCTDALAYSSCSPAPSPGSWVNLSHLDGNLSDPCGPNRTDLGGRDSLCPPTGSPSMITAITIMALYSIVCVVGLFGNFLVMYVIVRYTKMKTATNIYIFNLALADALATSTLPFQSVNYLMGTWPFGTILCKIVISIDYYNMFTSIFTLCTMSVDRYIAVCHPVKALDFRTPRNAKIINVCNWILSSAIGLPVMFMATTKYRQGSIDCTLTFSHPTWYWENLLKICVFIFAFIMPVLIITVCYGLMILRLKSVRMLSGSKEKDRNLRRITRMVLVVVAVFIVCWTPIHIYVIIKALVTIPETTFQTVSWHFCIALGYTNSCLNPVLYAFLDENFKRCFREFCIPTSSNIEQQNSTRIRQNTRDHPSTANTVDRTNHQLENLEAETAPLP

[4] = target: 5-hydroxytryptamine receptor 2A (Mus musculus, UniProt P35363); format: functional, cell-based;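 further: CHO-K1 cells with tagged receptor and beta-arrestin; agonist potency measured as compound-induced activation of the receptor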
Sequence of 5-hydroxytryptamine receptor 2A (P35363 whole entry): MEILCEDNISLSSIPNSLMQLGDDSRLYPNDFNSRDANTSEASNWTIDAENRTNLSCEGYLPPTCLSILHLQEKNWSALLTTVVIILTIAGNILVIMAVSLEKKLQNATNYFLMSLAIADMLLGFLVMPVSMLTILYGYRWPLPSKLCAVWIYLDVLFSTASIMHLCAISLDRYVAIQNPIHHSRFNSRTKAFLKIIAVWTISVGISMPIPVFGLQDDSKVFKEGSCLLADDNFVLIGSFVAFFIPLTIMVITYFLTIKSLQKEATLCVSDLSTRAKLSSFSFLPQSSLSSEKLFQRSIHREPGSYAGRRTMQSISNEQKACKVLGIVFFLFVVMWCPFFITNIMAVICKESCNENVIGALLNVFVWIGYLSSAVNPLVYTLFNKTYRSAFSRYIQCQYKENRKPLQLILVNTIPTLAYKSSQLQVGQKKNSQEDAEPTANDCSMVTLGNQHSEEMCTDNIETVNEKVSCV

HeLa = experiment: HeLa cell cytotoxicity, dose response, cytotoxicity control for MITF activator project, CellTiter-Glo luminescence, cherry-pick samples (AID 540259); format: functional, cell-based; conditions: Homo sapiens
Melanocortin receptor 4 = Melanocortin receptor 4 (Homo sapiens, UniProt P32245); experiment: MC4R antagonist potency on cAMP, dose response, cell-based, TR-FRET, biased antagonists (AID 602298); format: functional;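 further: antagonist potency against agonist-stimulated cAMP production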
Sequence of Melanocortin receptor 4 (P32245 whole entry): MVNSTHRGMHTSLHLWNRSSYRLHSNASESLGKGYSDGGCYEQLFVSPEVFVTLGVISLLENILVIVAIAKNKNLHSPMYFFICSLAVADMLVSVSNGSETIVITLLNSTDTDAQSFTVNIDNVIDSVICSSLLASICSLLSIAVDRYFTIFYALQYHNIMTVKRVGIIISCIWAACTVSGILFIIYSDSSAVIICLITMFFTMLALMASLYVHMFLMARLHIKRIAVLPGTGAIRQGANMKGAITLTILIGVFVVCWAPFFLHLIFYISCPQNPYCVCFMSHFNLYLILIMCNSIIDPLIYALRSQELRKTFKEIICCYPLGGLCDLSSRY

[5] = nonselective inhibitors of cellular cAMP signaling, dose response, counter-screen for MC4R biased antagonist project, cell-based, TR-FRET cAMP detection (AID 602305); format: functional;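 further: U2OS cells stimulated with forskolin near its EC80 as the cAMP inducer; potency is for inhibition of forskolin-stimulated cAMP signaling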
[6] = target: DNA repair and recombination protein RAD54-like (Homo sapiens, UniProt Q92698); experiment: inhibitors of human RAD54 branch migration, confirmation, biochemical, fluorescence, cherry-picked samples, dose series (AID 651657); format: functional
Sequence of DNA repair and recombination protein RAD54-like (Q92698 whole entry): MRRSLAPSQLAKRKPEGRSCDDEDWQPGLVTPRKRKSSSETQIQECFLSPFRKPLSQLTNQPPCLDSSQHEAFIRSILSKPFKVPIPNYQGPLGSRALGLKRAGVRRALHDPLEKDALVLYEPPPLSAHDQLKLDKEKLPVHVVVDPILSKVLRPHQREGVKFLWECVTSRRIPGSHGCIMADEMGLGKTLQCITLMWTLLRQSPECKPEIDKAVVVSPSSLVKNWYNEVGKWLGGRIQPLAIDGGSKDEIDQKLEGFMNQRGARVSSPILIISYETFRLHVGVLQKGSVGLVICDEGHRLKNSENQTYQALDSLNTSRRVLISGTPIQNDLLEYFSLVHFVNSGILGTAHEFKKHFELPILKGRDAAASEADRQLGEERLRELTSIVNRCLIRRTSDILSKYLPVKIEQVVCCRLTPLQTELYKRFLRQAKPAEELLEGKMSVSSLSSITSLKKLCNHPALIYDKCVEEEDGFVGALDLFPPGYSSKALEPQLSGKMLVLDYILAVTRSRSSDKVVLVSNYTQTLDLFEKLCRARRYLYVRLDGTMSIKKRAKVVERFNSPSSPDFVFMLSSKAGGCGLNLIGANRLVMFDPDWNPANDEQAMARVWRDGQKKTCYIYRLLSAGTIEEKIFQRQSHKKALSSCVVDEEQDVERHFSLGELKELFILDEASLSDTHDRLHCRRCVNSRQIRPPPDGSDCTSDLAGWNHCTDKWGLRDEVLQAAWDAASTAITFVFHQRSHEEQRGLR

[7] = inhibitors of SNCA 5'UTR-driven reporter translation, confirmation, H4 neuroglioma cells, luminescence (AID 1988); format: functional, cell-based
Cytochrome P450 2C19 = Cytochrome P450 2C19 (Homo sapiens, UniProt P33261); experiment: Cytochrome panel assay with activity outcomes. Panel member name: p450-cyp2c19 Compounds with AC50 equal or less than 10 uM are considered active; format: functional; conditions: read-out: AC50
Sequence of Cytochrome P450 2C19 (P33261 whole entry): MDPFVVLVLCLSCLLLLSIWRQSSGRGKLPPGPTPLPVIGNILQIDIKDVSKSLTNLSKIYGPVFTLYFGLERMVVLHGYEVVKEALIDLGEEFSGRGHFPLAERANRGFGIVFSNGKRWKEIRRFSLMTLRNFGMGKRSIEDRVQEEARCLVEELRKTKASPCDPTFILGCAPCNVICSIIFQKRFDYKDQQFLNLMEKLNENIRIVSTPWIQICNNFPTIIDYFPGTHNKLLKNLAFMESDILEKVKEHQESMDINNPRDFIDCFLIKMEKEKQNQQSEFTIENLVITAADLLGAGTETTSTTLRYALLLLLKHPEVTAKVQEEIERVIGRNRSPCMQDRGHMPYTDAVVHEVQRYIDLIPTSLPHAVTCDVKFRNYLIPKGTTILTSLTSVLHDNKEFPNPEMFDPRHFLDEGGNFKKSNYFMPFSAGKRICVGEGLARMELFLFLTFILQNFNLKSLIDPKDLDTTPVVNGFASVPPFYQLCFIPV

Cytochrome P450 2D6 = Cytochrome P450 2D6 (Homo sapiens, UniProt P10635);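 further: CYP2D6 member of a cytochrome P450 panel assay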
Sequence of Cytochrome P450 2D6 (P10635 whole entry): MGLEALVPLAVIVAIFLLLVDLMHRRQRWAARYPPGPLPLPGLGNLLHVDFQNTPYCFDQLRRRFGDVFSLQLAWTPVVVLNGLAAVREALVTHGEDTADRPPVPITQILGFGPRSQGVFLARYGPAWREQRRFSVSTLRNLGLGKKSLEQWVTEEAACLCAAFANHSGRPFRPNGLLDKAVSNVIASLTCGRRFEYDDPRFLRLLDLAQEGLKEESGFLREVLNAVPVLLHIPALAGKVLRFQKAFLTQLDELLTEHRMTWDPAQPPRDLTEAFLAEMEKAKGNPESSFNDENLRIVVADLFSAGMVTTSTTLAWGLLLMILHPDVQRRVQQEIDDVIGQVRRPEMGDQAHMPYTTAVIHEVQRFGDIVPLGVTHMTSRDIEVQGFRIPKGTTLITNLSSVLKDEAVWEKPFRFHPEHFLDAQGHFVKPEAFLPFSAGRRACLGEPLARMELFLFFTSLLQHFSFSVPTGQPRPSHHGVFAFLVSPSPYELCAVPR

[8] = inhibitors of firefly luciferase expression or activity, dose response, H4 neuroglioma cells, luminescence (AID 1990); format: functional, cell-based
[9] = Luminescence Cell-Based Dose Response HTS to Identify Inhibitors of 5'UTR Stem-Loop Driven Prion Protein mRNA Translation in H4 Neuroglioblastoma Cells. [Related pubchem assays: 1827 (Project Summary), 1813 (Primary HTS)]; format: functional
Cytochrome P450 2C9 = Cytochrome P450 2C9 (Homo sapiens, UniProt P11712)
Sequence of Cytochrome P450 2C9 (P11712 whole entry): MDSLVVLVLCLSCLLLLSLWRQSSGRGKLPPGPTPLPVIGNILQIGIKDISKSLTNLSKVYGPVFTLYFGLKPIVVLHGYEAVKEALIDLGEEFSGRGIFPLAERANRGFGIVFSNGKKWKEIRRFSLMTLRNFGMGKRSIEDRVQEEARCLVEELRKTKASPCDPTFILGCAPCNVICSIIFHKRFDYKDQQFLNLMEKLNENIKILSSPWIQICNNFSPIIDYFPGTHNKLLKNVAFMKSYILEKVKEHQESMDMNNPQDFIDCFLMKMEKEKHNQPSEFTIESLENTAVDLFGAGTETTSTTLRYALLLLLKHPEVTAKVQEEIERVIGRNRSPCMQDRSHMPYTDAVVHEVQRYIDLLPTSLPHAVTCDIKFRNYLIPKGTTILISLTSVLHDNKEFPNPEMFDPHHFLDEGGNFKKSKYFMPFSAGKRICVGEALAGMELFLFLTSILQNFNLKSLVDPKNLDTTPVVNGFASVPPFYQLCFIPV

Protein skinhead-1 = target: T2, Protein skinhead-1 (Caenorhabditis elegans, UniProt P34707); format: functional
T2 sequence (P34707 whole entry): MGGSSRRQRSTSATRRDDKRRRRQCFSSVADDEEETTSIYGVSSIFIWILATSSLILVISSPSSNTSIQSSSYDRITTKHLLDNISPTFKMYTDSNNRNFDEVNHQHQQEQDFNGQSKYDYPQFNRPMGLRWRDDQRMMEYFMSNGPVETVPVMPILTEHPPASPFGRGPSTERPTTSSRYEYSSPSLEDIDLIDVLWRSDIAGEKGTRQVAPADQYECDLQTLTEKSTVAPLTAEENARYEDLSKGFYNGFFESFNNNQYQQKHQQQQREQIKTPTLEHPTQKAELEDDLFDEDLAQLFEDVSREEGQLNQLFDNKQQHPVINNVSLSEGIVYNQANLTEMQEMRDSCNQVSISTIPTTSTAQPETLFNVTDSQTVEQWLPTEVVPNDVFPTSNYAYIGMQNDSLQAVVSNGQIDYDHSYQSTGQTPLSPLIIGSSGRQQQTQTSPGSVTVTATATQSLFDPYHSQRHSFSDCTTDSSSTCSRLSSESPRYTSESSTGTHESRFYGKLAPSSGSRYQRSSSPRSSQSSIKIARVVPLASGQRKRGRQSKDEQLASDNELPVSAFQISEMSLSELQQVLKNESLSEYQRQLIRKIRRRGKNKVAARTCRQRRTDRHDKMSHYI

Cytochrome P450 3A4 = Cytochrome P450 3A4 (Homo sapiens, UniProt P08684);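 further: CYP3A4 tested as one member of a cytochrome P450 panel screen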
[10] = HeLa cell cytotoxicity, dose response, cytotoxicity control for MgcRacGAP inhibitor project (AID 624300); format: functional
[11] = target: T3, Rac GTPase-activating protein 1 (Homo sapiens, UniProt Q9H0H5); experiment: MgcRacGAP GTPase-activating activity inhibitors, confirmation, biochemical, ADP Hunter fluorescence, primary and confirmatory (AID 624330); format: functional
T3 sequence (Q9H0H5 whole entry): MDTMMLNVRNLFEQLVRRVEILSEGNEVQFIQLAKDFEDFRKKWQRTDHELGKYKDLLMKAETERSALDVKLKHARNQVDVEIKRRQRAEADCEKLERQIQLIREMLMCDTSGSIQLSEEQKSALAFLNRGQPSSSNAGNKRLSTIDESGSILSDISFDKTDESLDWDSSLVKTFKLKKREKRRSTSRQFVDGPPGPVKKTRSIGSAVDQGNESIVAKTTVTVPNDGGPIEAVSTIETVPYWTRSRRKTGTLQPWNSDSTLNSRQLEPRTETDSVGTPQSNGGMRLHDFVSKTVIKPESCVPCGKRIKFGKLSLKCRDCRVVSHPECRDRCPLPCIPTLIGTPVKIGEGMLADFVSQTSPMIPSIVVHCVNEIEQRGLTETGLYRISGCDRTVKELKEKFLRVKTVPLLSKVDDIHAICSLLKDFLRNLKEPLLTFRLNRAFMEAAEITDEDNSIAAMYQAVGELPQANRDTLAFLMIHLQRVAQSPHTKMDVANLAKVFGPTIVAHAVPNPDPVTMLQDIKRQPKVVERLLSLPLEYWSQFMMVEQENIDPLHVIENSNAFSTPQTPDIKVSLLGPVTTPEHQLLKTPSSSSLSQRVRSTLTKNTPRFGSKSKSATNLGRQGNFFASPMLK

[12] = target: T4, Corticotropin-releasing factor receptor 2/Corticotropin-releasing factor-binding protein (Homo sapiens, UniProt P24387+Q13324); experiment: Dose Response confirmation of uHTS hits for small molecule antagonists of the CRF-binding protein and CRF-R2 receptor complex.; format: functional; conditions: read-out: IC50_Mean
T4 sequence (Q13324 whole entry): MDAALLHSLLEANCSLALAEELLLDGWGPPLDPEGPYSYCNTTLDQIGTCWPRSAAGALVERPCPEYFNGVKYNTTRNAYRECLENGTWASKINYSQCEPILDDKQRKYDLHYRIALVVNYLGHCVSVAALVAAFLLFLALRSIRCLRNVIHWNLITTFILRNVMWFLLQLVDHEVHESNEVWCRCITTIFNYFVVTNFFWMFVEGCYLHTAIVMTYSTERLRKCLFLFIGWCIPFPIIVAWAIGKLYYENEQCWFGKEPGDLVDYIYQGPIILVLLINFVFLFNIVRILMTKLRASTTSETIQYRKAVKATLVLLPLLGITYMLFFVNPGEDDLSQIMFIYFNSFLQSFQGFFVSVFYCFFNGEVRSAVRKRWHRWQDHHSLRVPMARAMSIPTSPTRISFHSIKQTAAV
T4 sequence (P24387 whole entry): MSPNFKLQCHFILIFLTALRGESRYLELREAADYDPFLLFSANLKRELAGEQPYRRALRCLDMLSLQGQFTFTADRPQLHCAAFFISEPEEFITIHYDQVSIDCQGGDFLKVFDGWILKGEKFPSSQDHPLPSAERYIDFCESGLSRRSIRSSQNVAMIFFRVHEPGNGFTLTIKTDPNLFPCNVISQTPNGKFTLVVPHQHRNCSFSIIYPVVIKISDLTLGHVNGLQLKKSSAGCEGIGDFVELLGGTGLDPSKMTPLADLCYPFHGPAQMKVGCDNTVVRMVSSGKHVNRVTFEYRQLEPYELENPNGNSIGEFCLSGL

[13] = target: T4, Corticotropin-releasing factor receptor 2/Corticotropin-releasing factor-binding protein; experiment: activators of CRF receptor 2 with binding protein – uHTS hits, confirmation (AID 602473); format: functional; conditions: read-out: EC50_Mean
[14] = CRF-BP/CRF-R2 complex antagonists, dose response, cell-based, uHTS hits, 384-well (AID 651639); format: functional, Homo sapiens; conditions: read-out: IC50_Mean
[15] = target: Hepatocyte nuclear factor 4-alpha (Homo sapiens, UniProt P41235); format: functional, cell-based;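 further: biochemical luminescence-based dose-response counterscreen measuring inhibition of HNF4 dimerization, run alongside a screen for blockers of ABHD5–perilipin-5 interaction; split luciferase complementation of HNF4 fusion proteins in cell lysate measuring dimerization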
Sequence of Hepatocyte nuclear factor 4-alpha (P41235 whole entry, the tested form may be a part): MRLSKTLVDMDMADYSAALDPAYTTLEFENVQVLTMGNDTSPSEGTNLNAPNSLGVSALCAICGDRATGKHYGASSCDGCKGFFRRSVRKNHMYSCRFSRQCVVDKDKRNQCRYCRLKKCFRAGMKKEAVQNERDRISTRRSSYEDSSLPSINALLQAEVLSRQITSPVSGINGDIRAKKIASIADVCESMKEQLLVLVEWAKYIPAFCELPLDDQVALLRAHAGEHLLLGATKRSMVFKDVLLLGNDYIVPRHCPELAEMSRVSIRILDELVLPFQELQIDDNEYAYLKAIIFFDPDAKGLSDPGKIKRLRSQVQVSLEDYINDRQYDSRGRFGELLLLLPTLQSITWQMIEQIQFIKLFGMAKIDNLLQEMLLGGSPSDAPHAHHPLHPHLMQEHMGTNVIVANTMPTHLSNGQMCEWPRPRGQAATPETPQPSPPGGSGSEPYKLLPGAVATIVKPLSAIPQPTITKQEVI

Beta-lactamase [16] = target: Beta-lactamase (Salmonella choleraesuis (strain SC-B67), UniProt Q5J463)
Sequence of Beta-lactamase (Salmonella choleraesuis (strain SC-B67), UniProt Q5J463) (Q5J463 whole entry): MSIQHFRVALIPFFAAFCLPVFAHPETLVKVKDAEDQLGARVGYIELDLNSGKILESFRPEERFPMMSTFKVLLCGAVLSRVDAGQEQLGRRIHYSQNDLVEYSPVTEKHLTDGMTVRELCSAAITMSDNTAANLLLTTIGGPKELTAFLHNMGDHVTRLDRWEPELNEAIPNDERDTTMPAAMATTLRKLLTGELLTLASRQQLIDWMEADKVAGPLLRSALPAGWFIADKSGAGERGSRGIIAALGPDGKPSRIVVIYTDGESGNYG

Beta-lactamase [17] = target: Beta-lactamase (Pseudomonas aeruginosa, UniProt Q79MP6);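 further: biochemical dose-response test of metallo-beta-lactamase enzyme inhibition, read out by epi-absorbance; purified recombinant IMP-1 metallo-beta-lactamase with nitrocefin as substrate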
Sequence of Beta-lactamase (Pseudomonas aeruginosa, UniProt Q79MP6) (Q79MP6 whole entry): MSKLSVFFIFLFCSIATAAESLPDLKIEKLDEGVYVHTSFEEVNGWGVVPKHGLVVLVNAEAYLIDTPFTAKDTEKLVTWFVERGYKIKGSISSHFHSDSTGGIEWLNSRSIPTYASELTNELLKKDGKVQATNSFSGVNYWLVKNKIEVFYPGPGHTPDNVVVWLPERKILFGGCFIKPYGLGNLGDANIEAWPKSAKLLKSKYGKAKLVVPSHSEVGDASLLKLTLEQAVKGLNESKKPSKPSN

[18] = target: T5, DNA repair protein RAD52 homolog (Homo sapiens, UniProt P43351); format: functional, biochemical
T5 sequence (P43351 whole entry): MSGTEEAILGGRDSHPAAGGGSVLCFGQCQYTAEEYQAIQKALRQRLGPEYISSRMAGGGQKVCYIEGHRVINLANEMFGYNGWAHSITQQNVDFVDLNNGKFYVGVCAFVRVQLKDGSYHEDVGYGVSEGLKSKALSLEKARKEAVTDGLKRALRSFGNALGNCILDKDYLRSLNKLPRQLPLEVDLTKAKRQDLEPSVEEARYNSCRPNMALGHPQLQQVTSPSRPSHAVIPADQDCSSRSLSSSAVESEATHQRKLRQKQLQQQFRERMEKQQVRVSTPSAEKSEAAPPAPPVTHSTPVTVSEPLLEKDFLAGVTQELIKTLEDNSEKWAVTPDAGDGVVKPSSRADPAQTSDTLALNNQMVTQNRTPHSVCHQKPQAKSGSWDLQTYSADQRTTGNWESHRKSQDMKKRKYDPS

[19] = target: 5-hydroxytryptamine receptor 5A (Homo sapiens, UniProt P47898); experiment: Counterscreen for agonists of OPRM1-OPRD1 heterodimerization: luminescence-based cell-based high throughput dose response assay to identify agonists of 5-hydroxytryptamine (serotonin) 5A receptor (HTR5A). [Related pubchem assays (depositor defined):AID504326, AID504355, AID504692, AID504904, AID504905]; format: functional
Mu-type opioid receptor [20] = target: T1, Mu-type opioid receptor; experiment: Counterscreen for agonists of heterodimerization of the mu 1 (OPRM1) and delta 1 (OPRD1) opioid receptors: Luminescence-based cell-based high throughput dose response assay to identify agonists of OPRM1 homodimerization.; format: functional
[21] = target: Delta-type opioid receptor (Homo sapiens, UniProt P41143); experiment: Counterscreen for agonists of heterodimerization of the mu 1 (OPRM1) and delta 1 (OPRD1) opioid receptors: Luminescence-based cell-based high throughput dose response assay to identify agonists of OPRD1 homodimerization. [Related pubchem assays (depositor defined):AID504326, AID504355, AID504692, AID504904, AID504905]; format: functional
Sequence of Delta-type opioid receptor (P41143 whole entry): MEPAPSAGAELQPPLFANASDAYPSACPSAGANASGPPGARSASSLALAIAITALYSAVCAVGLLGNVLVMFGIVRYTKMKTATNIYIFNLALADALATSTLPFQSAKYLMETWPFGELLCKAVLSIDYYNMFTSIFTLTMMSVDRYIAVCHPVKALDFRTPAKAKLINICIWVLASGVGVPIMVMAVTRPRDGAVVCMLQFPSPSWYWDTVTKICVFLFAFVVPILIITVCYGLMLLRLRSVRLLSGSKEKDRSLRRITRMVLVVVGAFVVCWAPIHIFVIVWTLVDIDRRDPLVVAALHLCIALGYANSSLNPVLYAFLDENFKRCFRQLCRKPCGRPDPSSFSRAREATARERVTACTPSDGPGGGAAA

## C[C@H](CO)N1C[C@H](C)[C@H](CN(C)Cc2ccc(Oc3ccccc3)cc2)Oc2ccc(NC(=O)CCCN(C)C)cc2C1=O
[1]
  AbsAC35: 286.99 µM

## CCCCNC(=O)CCC(=O)N1CCN(C(c2ccccc2)c2ccccc2)CC1
[2]
  AC50: 81 µM (active)

## COc1ccc(S(=O)(=O)NCC(c2ccc3c(c2)OCO3)N2CCN(c3ccccc3)CC2)cc1 (centres undefined)
Mu-type opioid receptor [3]
  EC50: 92.5 µM (inactive)
[4]
  EC50: 17.2 µM (inactive)

## CN(CC(=O)Nc1ccccc1Br)C(=O)c1cc2c(s1)CCCCC2
HeLa
  AC50: > 350 µM (inactive)

## CC(C)[C@H](NC(=O)c1ccc(C(C)(C)C)cc1)C(=O)N1CCN(Cc2ccc3c(c2)OCO3)CC1
Mu-type opioid receptor [3]
  EC50: 92.5 µM (inactive)
[4]
  EC50: 4.33 µM (active)

## CC(NC(=O)COC(=O)CNS(=O)(=O)/C=C/c1ccccc1)c1ccccc1 (centres undefined)
Melanocortin receptor 4
  IC50: > 64.6 µM (inactive)
[5]
  IC50: > 64.6 µM (inactive)

## Cc1nc(NC(C)C)c2cnn(CCc3ccccc3)c2n1
HeLa
  AC50: 84.6 µM (active)

## O=C(Nc1cccc(Br)c1)c1cc(S(=O)(=O)N2CCOCC2)cs1
[6]
  AC50: 72.5 µM (active)

## O=C1NC(=O)N(CCC2=CCCCC2)C(=O)/C1=C\Nc1cccc(F)c1
[7]
  EC50: 41.4 µM (active)
Cytochrome P450 2C19
  AC50: 10 µM (inconclusive)
Cytochrome P450 2D6
  AC50: inconclusive
[8]
  EC50: > 120 µM (not active)
[9]
  EC50: > 120 µM (not active)

## CCOC(=O)NCc1ccc2c(c1)cc(C)n2C
Cytochrome P450 2C9
  AC50: inconclusive
Protein skinhead-1
  IC50: > 100 µM (inactive)
Cytochrome P450 3A4
  AC50: 14.1 µM (inconclusive)
Cytochrome P450 2D6
  AC50: inconclusive

## COc1ccc(C(CNC(=O)c2cc3ccccc3cc2O)N2CCOCC2)cc1 (centres undefined)
[10]
  CC50: 100 µM (active)
[11]
  IC50: 77 µM (active)

## Cc1ccc(S(=O)(=O)NC(=Nc2ccc([N+](=O)[O-])cc2[N+](=O)[O-])c2ccccc2)cc1
[12]
  IC50: 9.98 µM (active)
[13]
  EC50: > 53 µM (inactive)
[14]
  IC50: > 20 µM (inactive)

## CC(=O)Oc1ccc(C23c4ccccc4C2(OC(C)=O)c2cc(OC(C)=O)ccc23)cc1 (centres undefined)
[15]
  IC50: 5.5 µM (active)

## CCOC(=O)C(NC(=O)CC(C)C)(Nc1sc(C)c(CC)c1C#N)C(F)(F)F (centres undefined)
[12]
  IC50: 13.6 µM (active)
[13]
  EC50: > 53 µM (inactive)
[14]
  IC50: > 20 µM (inactive)

## COc1ccc2c(Cl)c(C(=O)NCCCn3ccnc3)sc2c1Cl
Beta-lactamase [16]
  IC50: > 59.6 µM (inactive)
Beta-lactamase [17]
  IC50: > 59.6 µM (inactive)

## CCCc1nc(C)c2c(=O)[nH]c(-c3cc(S(=O)(=O)N4CCN(CC)CC4)ccc3OCC)nn12
[15]
  IC50: 25.1 µM (inactive)

## COc1ccc(-c2cc3nc(NCCCN(C)C)n(C)c(=O)c3s2)cc1OC
[6]
  AC50: 11.5 µM (active)
[18]
  AC50: 4.79 µM (active)

## Cc1ccc2c(Cl)c(Cc3ccccc3)c(=S)[nH]c2n1
[19]
  EC50: > 92.5 µM (inactive)
Mu-type opioid receptor [20]
  EC50: > 92.5 µM (inactive)
[21]
  EC50: > 92.5 µM (inactive)

## Cc1nn2c(nc1=O)NNC2(C)C(C)(C)C (centres undefined)
[2]
  AC50: 130 µM (active)

## C[C@H](NC(=O)C[C@H]1C=C[C@H](NC(=O)Cc2ccccn2)[C@H](CO)O1)c1ccccc1
[1]
  AbsAC35: 200 µM
